Assays:
[1] = system: primary mouse megakaryocytes; assay: Platelet production from cultured mouse bone marrow megakaryocytes; format: cell-based, mouse (C57BL/6)
Procedure: Bone marrow was isolated from the femora of male C57BL/6 mice (Jackson Laboratories, Bar Harbor, Me.) and plated at a concentration of 1×10^6 cells per well in 12-well plates in IMDM (Iscove's Modified Dulbecco's Media, Invitrogen) with 20% BIT 9500 (BSA, insulin, transferrin) and supplemented with 100 ng/mL of rhTPO. Cells were cultured for 5 days, following which 15d-PGJ2 (10 μM) was added to the culture medium for 24 h. On the sixth day, cells were examined by phase-contrast microscopy using an inverted microscope (Olympus IX81) and images were captured using SPOT RT software (New Hyde Park, N.Y.). Megakaryocytes were identified by preincubating with anti-mouse CD16/32 (FcγR-blocking antibody) and then incubating with PE-conjugated hamster anti-mouse CD41 antibody.
Platelets were isolated from megakaryocytes by centrifugation at 150 xg for 10 min. Supernatants underwent sequential centrifugation (500 xg for 10 min and 1000×g for 10 min). The remaining platelet pellet was fixed then permeabilized with a CD61 or CD41 antibody. 7-AAD (BD Pharmingen) was added for 10 min before analyzing the cells by flow cytometry. […]

[2] = system: mouse bone marrow culture-derived platelets; assay: Function of mouse bone marrow culture-derived platelets (collagen response, spreading on fibrinogen); format: cell-based, mouse (C57BL/6)
Procedure: Platelets were isolated from the Meg-01 cells and human blood as described above. Both normal human platelets and Meg-01-derived platelets were stained with annexin V-FITC then treated with 10 μg/ml of collagen for 15 min. Cells were analyzed for collagen-induced annexin V binding and change in size and shape by flow cytometry. Platelets were isolated from primary human megakaryocytes and primary mouse megakaryocytes as described above. Primary human platelets were stained with CD41-FITC and primary mouse platelets were stained with CD61-PE then treated with 10 μg/mL of collagen. Cells were analyzed for collagen-induced CD61/CD41 upregulation and change in size and shape using flow cytometry.
Coverslips were coated with 100 μg/mL of fibrinogen for 1 h and blocked with 0.5 mg/mL BSA for 1 h. Platelets were added to the fibrinogen-coated coverslips in Tyrode's buffer and fixed with glutaraldehyde, post-fixed with 1% osmium tetroxide, and dehydrated. Platelets were then coated with a gold/palladium film. Images were acquired using the Zeiss-Leo 982 FE-SEM (scanning electron microscope).

[3] = system: primary human megakaryocytes; assay: Reactive oxygen species production in primary human megakaryocytes; format: cell-based; conditions: 1 h and 6 h
Procedure: Human CD34+ cord blood cells were obtained from the National Disease Research Interchange (NDRI, Philadelphia, Pa.). Cells were plated at 2.5×10^5 cells per well in a 12-well plate and cultured in serum-free medium as previously described (Zeuner et al., “Chemotherapy-induced Thrombocytopenia Derives from the Selective Death of Megakaryocyte Progenitors and Can Be Rescued by Stem Cell Factor,” Cancer Res 67:4767-4773 (2007), which is hereby incorporated by reference in its entirety) and supplemented with 100 ng/mL of rhTPO. After 14 days in culture, megakaryocytes were identified by staining with a CD61-FITC antibody and analyzed on a BD Biosciences FACSCalibur flow cytometer. Data were analyzed using FlowJo software (Treestar, Ashland, Oreg.). Cell images were captured using an inverted microscope (Olympus IX81). Ten μM carboxy-H2DCFDA was added to cells for 20 min at RT. The cells were washed and immediately analyzed by flow cytometry. Five μM of MitoSOX Red dye in HBSS containing Mg^2+ and Ca^2+ was added to the cells for 15 min at 37° C. The cells were washed in HBSS and analyzed by flow cytometry.

Meg-01 cells = assay: DNA content analysis of Meg-01 cells; format: cell-based, human; conditions: 10 μM
Procedure: Cells were fixed in 95% ethanol, treated with RNAse (Sigma) followed by 20 μg/mL propidium iodide (Sigma) to stain DNA, and analyzed by flow cytometry.

[4] = system: mouse megakaryocyte progenitors (Meg-CFC); assay: Megakaryocyte progenitor (Meg-CFC) assay on bone marrow of treated mice; format: in vivo
Procedure: Primary mouse bone marrow cells were suspended in IMDM at a concentration of 8×10^6 cells/mL. Two-hundred thousand cells were plated in IMDM supplemented with 20% BIT9500, 0.2% 2-mercaptoethanol, 2% Glutamax, and 20% Cellgro-H20 (Mediatech, Herndon, Va.) and cultured with rhTPO (50 ng/mL), IL-3 (10 ng/mL) (Preprotech, Rocky Hill, N.J.), IL-6 (20 ng/mL) (Preprotech), IL-11 (Preprotech) (50 ng/mL), and collagen at 37° for 7 days (Tober et al., “The Megakaryocyte Lineage Originates from Hemangioblast Precursors and is an Integral Component Both of Primitive and of Definitive Hematopoiesis,” Blood 109:1433-1441 (2007), which is hereby incorporated by reference in its entirety). Collagen gels were dehydrated, fixed, and labeled with GPIbβ and GPV, modified by ABC (Vector Labs, Burlingame, Calif.), and developed in Vector Red (Vector Labs). Meg-CFC were defined by their ability to generate colonies containing at least three megakaryocytes.

[5] = mice injected 1 mg/kg for two consecutive days, 7 days of culture

CCCCCC=CC=C1C(=O)C=C[C@@H]1CC=CCCCC(=O)O [15d-PGJ2, 15-deoxy-Δ^12,14 prostaglandin J2]
increase in percentage of CD61+ platelets in culture ([1]; mouse bone marrow cultured 5 days with rhTPO, then 10 μM for 24 h): ~14%
megakaryocyte surface morphology ([1]; mouse megakaryocytes, 10 μM, 24 h, microscopy): induced the appearance of ruffled edges on the megakaryocytes
platelet spreading on fibrinogen ([2]; mouse bone marrow culture-derived platelets, fibrinogen coated slide): spread in response to fibrinogen
geometric mean fluorescence intensity of surface CD41, after collagen treatment ([2]; platelets from mouse bone marrow cultures treated with 15d-PGJ2, collagen 10 μg/mL, 15 min): 20
geometric mean fluorescence intensity of surface CD41, before collagen ([2]; platelets from mouse bone marrow cultures treated with 15d-PGJ2, no collagen): 9
percentage of ROS positive cells, Mitosox Red staining [3]: increase in the percentage of ROS positive cells
percentage of ROS positive cells, carboxy-H2DCFDA staining [3]: increase in the percentage of ROS positive cells
DNA content (Meg-01 cells; 24 h and 48 h): unchanged
DNA content (Meg-01 cells; 72 h): increased DNA content
megakaryocyte number [4]: failed to increase megakaryocyte number
megakaryocyte colony number (Meg-CFC) [4, 5]: did not influence megakaryocyte colony number or colony size
megakaryocyte colony size (Meg-CFC) [4, 5]: did not influence megakaryocyte colony number or colony size
percentage of megakaryocytes producing proplatelets [4, 5]: significantly augmented the percentage of megakaryocytes producing proplatelets

Reference: patent US9012439B2, “Use of electrophilic compounds for inducing platelet production or maintaining platelet function” (University of Rochester, priority 2007, dated 2015)
